Measured values reported in ChEMBL document CHEMBL1201862, “PubChem BioAssay data set” (2004).
Active and inactive are the calls of the source.

Legend:
BJ = assay: cytotoxicity toward BJ-TERT-LT-ST fibroblasts, dose response, cell-based, RAS-independent, luminescence (AID 1935); format: functional; conditions: Homo sapiens;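 note: BJ fibroblasts immortalized with TERT plus LT and ST oncogenes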
[1] = target: Neurotensin receptor type 1 (Homo sapiens, UniProt P30989); format: functional;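 note: Image-based confirmatory dose-response assay measuring agonist activity at NTR1; NTR1-expressing U2OS osteosarcoma cells imaged for beta-arrestin GFP spot formation; agonist potency where compounds increase beta-arrestin recruitment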
[2] = target: T1, Sentrin-specific protease 6 (Homo sapiens, UniProt Q9GZR1); assay: SAR Analysis of small molecule inhibitors of Sentrin-specific protease 6 (SENP6) using a Luminescent assay. [Related pubchem assays (depositor defined):AID2582, AID2599]; format: functional
T1 sequence (Q9GZR1 whole entry): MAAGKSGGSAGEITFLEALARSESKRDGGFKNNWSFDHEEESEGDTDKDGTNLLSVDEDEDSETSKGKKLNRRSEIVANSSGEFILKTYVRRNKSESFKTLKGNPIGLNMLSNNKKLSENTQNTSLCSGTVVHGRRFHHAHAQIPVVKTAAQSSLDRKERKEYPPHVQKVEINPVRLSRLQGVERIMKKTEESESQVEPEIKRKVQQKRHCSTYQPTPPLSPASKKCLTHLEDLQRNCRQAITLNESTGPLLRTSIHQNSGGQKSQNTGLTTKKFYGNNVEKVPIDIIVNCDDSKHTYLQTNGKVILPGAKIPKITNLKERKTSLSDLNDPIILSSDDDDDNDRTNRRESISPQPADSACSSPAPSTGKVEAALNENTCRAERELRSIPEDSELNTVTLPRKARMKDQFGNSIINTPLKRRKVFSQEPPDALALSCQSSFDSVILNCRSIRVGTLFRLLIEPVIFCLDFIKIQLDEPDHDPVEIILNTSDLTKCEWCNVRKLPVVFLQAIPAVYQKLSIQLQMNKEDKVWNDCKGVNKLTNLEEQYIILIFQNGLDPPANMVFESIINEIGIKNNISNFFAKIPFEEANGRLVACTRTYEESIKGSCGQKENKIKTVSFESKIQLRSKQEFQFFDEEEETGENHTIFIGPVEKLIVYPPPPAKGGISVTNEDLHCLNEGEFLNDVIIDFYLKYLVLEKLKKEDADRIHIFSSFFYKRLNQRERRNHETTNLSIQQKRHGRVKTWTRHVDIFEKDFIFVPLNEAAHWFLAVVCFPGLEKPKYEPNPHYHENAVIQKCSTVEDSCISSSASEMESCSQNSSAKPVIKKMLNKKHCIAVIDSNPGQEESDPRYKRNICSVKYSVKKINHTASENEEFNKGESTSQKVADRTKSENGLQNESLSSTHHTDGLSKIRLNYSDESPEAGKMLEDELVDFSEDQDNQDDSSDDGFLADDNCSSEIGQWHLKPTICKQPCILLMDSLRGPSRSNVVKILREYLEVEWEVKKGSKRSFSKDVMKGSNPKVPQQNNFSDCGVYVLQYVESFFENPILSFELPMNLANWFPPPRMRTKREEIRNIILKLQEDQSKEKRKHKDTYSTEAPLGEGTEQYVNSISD

[3] = target: T2, Sentrin-specific protease 7 (Homo sapiens, UniProt Q9BQF6); assay: SENP7 protease inhibitors, SAR follow-up, biochemical, luminescence (AID 504497); format: functional
T2 sequence (Q9BQF6 whole entry): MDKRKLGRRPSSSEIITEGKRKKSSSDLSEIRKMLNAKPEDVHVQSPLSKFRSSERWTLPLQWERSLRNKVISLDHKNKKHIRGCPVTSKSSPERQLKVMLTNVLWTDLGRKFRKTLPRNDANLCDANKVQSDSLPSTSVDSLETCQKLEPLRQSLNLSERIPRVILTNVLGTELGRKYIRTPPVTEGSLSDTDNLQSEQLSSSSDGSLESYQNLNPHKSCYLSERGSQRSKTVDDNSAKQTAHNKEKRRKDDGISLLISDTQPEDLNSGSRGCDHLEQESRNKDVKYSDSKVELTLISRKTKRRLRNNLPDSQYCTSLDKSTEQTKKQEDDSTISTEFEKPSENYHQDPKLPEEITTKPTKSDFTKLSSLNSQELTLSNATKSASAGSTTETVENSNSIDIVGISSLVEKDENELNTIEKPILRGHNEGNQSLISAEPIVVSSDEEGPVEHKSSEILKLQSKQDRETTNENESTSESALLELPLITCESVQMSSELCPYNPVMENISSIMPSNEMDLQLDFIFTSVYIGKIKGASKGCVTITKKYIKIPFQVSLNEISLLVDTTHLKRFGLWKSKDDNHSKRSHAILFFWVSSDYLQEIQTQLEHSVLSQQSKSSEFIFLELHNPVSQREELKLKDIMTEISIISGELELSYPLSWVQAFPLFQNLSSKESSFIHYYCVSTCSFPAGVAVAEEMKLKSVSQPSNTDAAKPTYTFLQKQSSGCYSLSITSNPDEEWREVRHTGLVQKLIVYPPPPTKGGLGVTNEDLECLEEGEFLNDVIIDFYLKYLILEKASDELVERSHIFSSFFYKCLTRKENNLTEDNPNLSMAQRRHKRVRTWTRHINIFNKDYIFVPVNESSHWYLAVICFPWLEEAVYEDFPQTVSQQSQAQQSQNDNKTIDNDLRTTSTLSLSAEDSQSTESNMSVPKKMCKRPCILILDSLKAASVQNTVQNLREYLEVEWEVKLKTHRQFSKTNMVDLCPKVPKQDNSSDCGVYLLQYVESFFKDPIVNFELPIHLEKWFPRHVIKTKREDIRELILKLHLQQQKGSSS

[4] = target: T3, Mannose-6-phosphate isomerase (Homo sapiens, UniProt P34949); assay: human PMI inhibitors, high substrate, primary screen, biochemical, fluorescence intensity, high mannose 6-phosphate (AID 1220)
T3 sequence (P34949 whole entry): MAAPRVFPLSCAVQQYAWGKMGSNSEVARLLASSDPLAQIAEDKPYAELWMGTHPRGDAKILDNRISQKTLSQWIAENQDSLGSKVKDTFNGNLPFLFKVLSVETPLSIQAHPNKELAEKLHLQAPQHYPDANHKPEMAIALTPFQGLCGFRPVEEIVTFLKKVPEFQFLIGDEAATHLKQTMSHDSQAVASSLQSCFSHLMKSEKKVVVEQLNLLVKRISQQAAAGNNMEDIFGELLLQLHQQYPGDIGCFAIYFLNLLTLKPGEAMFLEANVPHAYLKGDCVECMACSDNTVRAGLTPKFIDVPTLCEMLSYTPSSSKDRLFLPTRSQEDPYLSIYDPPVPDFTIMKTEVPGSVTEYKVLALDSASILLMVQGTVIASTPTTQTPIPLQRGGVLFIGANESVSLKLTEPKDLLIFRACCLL

Beta-galactosidase = Beta-galactosidase (Escherichia coli, UniProt Q8VNN2); assay: beta-galactosidase enzyme inhibitors and activators, dose response, artefact control for CCR6 antagonist project, biochemical, E. coli enzyme, set 3 (AID 504712); format: functional
Sequence of Beta-galactosidase (Q8VNN2 whole entry): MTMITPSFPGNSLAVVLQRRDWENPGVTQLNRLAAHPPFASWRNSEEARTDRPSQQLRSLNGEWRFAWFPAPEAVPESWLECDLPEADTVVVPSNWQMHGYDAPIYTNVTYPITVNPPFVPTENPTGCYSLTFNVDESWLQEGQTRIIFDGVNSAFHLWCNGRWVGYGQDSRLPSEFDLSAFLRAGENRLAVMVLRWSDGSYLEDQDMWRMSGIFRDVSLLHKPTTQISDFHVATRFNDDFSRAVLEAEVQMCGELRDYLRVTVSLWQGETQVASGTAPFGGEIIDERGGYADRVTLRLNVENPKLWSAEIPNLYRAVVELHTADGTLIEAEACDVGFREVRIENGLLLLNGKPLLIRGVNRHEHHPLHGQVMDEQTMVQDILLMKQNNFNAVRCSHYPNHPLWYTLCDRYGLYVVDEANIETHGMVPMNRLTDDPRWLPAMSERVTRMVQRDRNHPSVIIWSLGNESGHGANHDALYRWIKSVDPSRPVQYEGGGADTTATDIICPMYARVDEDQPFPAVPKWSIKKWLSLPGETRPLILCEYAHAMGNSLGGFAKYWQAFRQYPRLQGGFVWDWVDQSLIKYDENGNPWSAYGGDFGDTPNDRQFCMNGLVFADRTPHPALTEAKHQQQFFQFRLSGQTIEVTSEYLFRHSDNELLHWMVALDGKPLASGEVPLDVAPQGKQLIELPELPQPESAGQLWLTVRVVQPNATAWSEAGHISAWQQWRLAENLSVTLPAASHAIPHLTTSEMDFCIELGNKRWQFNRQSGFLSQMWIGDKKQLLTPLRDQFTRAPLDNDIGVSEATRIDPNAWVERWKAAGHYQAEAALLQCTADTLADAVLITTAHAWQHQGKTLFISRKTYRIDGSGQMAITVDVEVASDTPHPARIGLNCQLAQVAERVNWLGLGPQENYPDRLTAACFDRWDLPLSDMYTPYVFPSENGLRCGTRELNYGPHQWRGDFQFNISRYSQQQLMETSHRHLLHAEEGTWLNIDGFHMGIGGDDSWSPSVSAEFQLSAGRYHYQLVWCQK

Sequence of Neurotensin receptor type 1 (P30989 whole entry): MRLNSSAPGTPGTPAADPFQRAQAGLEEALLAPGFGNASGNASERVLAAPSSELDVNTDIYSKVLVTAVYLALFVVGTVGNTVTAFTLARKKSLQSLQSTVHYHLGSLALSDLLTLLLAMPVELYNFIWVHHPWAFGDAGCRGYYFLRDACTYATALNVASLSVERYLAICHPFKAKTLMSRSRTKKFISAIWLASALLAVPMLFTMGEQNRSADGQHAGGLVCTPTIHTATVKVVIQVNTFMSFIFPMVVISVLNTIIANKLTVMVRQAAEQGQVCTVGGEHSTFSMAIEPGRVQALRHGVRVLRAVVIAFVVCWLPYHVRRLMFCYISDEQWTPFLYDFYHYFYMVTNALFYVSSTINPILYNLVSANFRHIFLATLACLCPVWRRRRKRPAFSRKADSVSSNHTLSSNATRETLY

SMILES: COC(=O)C[C@]1(C(=O)OC)CN(C#N)N(c2ccc(Cl)cc2)C12c1ccccc1-c1ccccc12
- EC50 (BJ): 2.78 µM (inconclusive)
- EC50 [1]: 3.27 µM (active)

SMILES: O=C(Nc1ccc(C#Cc2ccccc2)cc1)C1CC1
- IC50 [2]: > 99 µM (inactive)
- IC50 [3]: 3.28 µM (active)

SMILES: CCCCn1c(NC(=O)c2ccco2)c(C(=O)OCC)c2nc3ccccc3nc21
- IC50 [4]: > 50 µM (not active)

SMILES: Cc1ccc(NC2=C/C(=N/S(=O)(=O)c3cccs3)c3ccccc3C2=O)cc1
- IC50 (Beta-galactosidase): 50.8 µM (inactive)
